The record followed here is ChEMBL document CHEMBL1828496 (Eur J Med Chem, 2011).

Data set [1] is described as follows: Hydrolytic stability of the compound in water after 1 to 24 hrs by NMR spectroscopic analysis. In kind it is physicochemical.
The species entered for data set [2] is Homo sapiens. The data set can be described thus: Selectivity ratio of IC50 for human recombinant MAO-A to IC50 for human recombinant MAO-B.
Data set [3] can be described thus: Hydrolytic stability of the compound in phosphate buffer at pH 7.4 after 1 to 24 hrs by NMR spectroscopic analysis. It counts as physicochemical.
Data set [4] can be described thus: Hydrolytic stability of the compound in acetonitrile after 1 to 24 hrs by NMR spectroscopic analysis. It counts as physicochemical.
Data set [5] can be described thus: Hydrolytic stability of the compound in dimethyl sulfoxide after 1 to 24 hrs by NMR spectroscopic analysis. It counts as physicochemical.
For data set [6], the target named is T1, Amine oxidase [flavin-containing] B (Homo sapiens, UniProt P27338).
T1 sequence (P27338 whole entry): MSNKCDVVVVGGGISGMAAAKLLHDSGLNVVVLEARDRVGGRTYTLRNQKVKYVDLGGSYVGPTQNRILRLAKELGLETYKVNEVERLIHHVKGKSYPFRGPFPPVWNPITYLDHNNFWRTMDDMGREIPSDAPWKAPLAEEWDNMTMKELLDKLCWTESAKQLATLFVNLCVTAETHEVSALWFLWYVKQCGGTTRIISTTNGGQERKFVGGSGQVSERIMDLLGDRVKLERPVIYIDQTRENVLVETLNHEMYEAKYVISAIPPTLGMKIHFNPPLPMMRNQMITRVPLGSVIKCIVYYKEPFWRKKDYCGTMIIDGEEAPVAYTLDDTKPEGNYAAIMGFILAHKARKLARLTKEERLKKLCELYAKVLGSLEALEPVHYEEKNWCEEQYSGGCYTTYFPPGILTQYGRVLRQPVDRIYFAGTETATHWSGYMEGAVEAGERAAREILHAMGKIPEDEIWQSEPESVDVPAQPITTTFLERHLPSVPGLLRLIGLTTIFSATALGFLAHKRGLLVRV
The data set can be described thus: biochemical. It counts as cell-based, BTI-TN-5B1-4.
Description: Inhibition of human recombinant MAO-B expressed in baculovirus infected BTI-TN-5B1-4 cells assessed as production of hydrogen peroxide from p-tyramine after 15 mins by microplate fluorescence assay

Data set [7] addresses T2, Amine oxidase [flavin-containing] A (Homo sapiens, UniProt P21397).
T2 sequence (P21397 whole entry): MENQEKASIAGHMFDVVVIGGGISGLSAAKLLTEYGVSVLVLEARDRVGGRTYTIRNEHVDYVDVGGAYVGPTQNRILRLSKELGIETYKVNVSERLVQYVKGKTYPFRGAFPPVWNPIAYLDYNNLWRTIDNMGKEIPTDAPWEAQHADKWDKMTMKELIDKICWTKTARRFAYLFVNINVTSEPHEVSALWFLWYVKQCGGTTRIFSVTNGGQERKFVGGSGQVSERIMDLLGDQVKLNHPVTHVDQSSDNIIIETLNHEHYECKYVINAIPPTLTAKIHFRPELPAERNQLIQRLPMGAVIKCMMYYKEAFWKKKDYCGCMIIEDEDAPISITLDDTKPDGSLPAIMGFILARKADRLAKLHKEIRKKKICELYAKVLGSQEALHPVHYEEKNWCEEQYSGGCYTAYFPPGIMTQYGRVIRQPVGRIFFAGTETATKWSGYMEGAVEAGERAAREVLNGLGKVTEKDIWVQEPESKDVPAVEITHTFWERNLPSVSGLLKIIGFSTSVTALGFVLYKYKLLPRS
The data set can be described thus: Inhibition of human recombinant MAO-A expressed in baculovirus infected BTI-TN-5B1-4 cells assessed as production of hydrogen peroxide from p-tyramine at 100 uM after 15 mins by microplate fluorescence assay. To be noted: human, bti-tn-5b1-4, 0.25 h, 100 µM.

For data set [8], the target named is T1, Amine oxidase [flavin-containing] B. The data set can be described thus: Inhibition of human recombinant MAO-B expressed in baculovirus infected BTI-TN-5B1-4 cells assessed as production of hydrogen peroxide from p-tyramine at 1 mM after 15 mins by microplate fluorescence assay. As to conditions: bti-tn-5b1-4, 0.25 h, 1000 µM; call rule not given here.
In data set [9] the target is T2, Amine oxidase [flavin-containing] A. The data set can be described thus: Inhibition of human recombinant MAO-A expressed in baculovirus infected BTI-TN-5B1-4 cells assessed as production of hydrogen peroxide from p-tyramine after 15 mins by microplate fluorescence assay.
The target of data set [10] is T1, Amine oxidase [flavin-containing] B. The data set can be described thus: Inhibition of human recombinant MAO-B expressed in baculovirus infected BTI-TN-5B1-4 cells assessed as production of hydrogen peroxide from p-tyramine at 100 uM after 15 mins by microplate fluorescence assay. To be noted: human, bti-tn-5b1-4, 0.25 h, 100 µM.

Bounds are passed on as bounds.

One may read the IC50 as the concentration that gives 50% inhibition. `NNC(=O)c1cc2ccccc2oc1=O`: the Stability result in data set [1], in [3], in [4] and in data set [5] was “Stable” in each case. For the same molecule, the Ratio IC50 in [2] was above 31100. This molecule also yielded an IC50 in [6] of 3.22 nM. Also, in [7], the “inhibition (INH)” value is “Not Active”.
As to `CCOC(=O)c1cc2ccc(OCc3ccc(Cl)c(Cl)c3)cc2oc1=O`, the Stability entry in [1], in data set [3], in data set [4] and in [5] was “Stable” throughout. Also, the Ratio IC50 in data set [2] is above 10600. The same molecule gave an IC50 in [6] of 9.47 nM. Also, in data set [7], the “inhibition (INH)” value is given as “Not Active”.
As for `O=C(NCCN1CCOCC1)c1ccc(Cl)cc1` [MOCLOBEMIDE], the “inhibition (INH)” value in data set [8] is on record as “Not Active”.
Turning to `CCOC(=O)c1cc2ccc(OCc3cccc(Cl)c3)cc2oc1=O`, the Stability result in data set [1], in [3], in data set [4] and in data set [5] was “Stable” in each case. Further, the Ratio IC50 in data set [2] was above 1630. The molecule also yielded an IC50 in data set [6] of 61.2 nM. Further, the “inhibition (INH)” value in data set [7] is listed as “Not Active”.
Consider `O=C(NNc1ccccc1)c1cc2ccccc2oc1=O`, for which the Stability result in [1], in data set [3], in [4] and in data set [5] was “Stable” in each case. Moreover, the Ratio IC50 in data set [2] worked out at 9.16. Also, the results for the concentration for half-maximal inhibition (IC50) in data set [9] and in data set [6] were 41400 nM and 4520 nM, respectively.
On to `CCOC(=O)c1cc2ccc(OC3CCCCCC3)cc2oc1=O`, for which the Stability entry in data set [1], in [3], in data set [4] and in [5] was “Stable” each time. In data set [2], the Ratio IC50 came out at 2160. Further, the results for the IC50 in data set [9] and in [6] were 46400 nM and 21.5 nM, respectively.
`CCOC(=O)c1cc2ccc(OCc3ccccc3)cc2oc1=O`: the Stability entry in data set [1], in data set [3], in [4] and in [5] was “Stable” each time. The Ratio IC50 in data set [2] is above 14300. The molecule also showed a half-inhibitory concentration (IC50) in data set [6] of 7.01 nM. Besides, in data set [7], the “inhibition (INH)” value is listed as “Not Active”.
For `CCOC(=O)c1cc2cc(OC)ccc2oc1=O`, the Stability entry in [1], in data set [3], in [4] and in data set [5] was “Stable” in each case. In addition, in data set [2], the Ratio IC50 was above 4.6. 21600 nM corresponded to half-maximal inhibition in data set [6] (IC50). The “inhibition (INH)” value in [7] is “Not Active”.
With `CCOC(=O)c1cc2ccc(OCc3ccc(C(C)(C)C)cc3)cc2oc1=O`, the Stability result in [1], in data set [3], in [4] and in data set [5] was “Stable” each time. The Ratio IC50 in [2] was above 27. The molecule further came in with an IC50 in [6] of 3750 nM. Also, in [7], the “inhibition (INH)” value is “Not Active”.
In the case of `CCOC(=O)c1cc2cc(I)cc(I)c2oc1=O`, the “inhibition (INH)” value in data set [10] and in [7] was “Not Active” each time. In addition, the Stability entry in [1], in data set [3], in data set [4] and in data set [5] was “Stable” throughout.
